According to publication PMC6130714, “The α-amylase and α-glucosidase inhibitory activities of the dichloromethane extracts and constituents of Ferulago bracteata roots” (Pharmaceutical Biology, 2017):
Values after ≈ are worked out from the molar mass of the structure shown. Where two headings read alike, the source gives them in different places.

Assays:
α-Glucosidase [1] = experiment: α-Glucosidase inhibitory activity (p-NPG substrate, 96-well plate); assay type: biochemical; conditions: for α-Glucosidase inhibition (%): mean of three replicates
Description: α-Glucosidase inhibitory activity was established by using a 96-well microtiter plate in accordance with the described method (Tao et al. […] Samples were dissolved in dimethyl sulfoxide (DMSO) and all samples (20 µL) together with the enzyme solution (20 µL) were mixed in the plate. Afterwards, the substrate (40 µL) was added for initiation of the reaction and the mixture was incubated at 37 °C for 40 min. After incubation is complete, 0.2 M sodium carbonate (80 µL) in phosphate buffer (pH 6.8) was added to all wells in order to quench the reaction. The amount of released p-nitrophenol (pNP) was measured at 405 nm using a 96-well microplate reader. Each assay for all samples was carried out in triplicate. […] All results are expressed as mean ± SE and differences between means were statistically analyzed using one-way analysis of ANOVA followed by Bonferroni’s complementary analysis, with p < 0.05 considered to indicate statistical significance.

α-Glucosidase [2] = conditions: cited from earlier work; for α-glucosidase inhibitory activity (in words): compared to acarbose, ref Luo et al. [2012]
α-amylase = experiment: α-Amylase inhibitory activity (starch, dinitrosalicylic acid); assay type: biochemical; conditions: concentration 1 mg/mL
Description: α-Amylase inhibitory activity was established in accordance with the reported method (Nampoothiri et al. [2011]) with slight modifications. One percent starch solution (100 µL) in 20 mM sodium phosphate buffer (pH 6.9 with 6 mM sodium chloride) and sample solutions (100 µL) were incubated at 25 °C for 10 min in 24-well microplate. After incubation, 100 µL α-amylase solution (0.5 mg/mL) was added to each well and the reaction mixtures were incubated at 25 °C for 10 min. In order to stop the reaction after the incubation, dinitrosalicylic acid color reagent (200 µL) was added and then the microplate was incubated in a boiling water bath for 5 min and cooled at room temperature. 50 µL was taken from each well and then was added to 96-well microplate. The reaction mixture was diluted by adding 200 µL distilled water and absorbance was measured at 540 nm. Each assay for all samples was carried out in triplicate. Percentage inhibitions of all samples were calculated using the equation at following: Inhibition %=1-ΔAsample /ΔAcontrol×100
All results are expressed as mean ± SE and differences between means were statistically analyzed using one-way analysis of ANOVA followed by Bonferroni’s complementary analysis, with p < 0.05 considered to indicate statistical significance.

| SMILES | IC50 value (α-glucosidase) (α-Glucosidase [1]) [µg/mL] | α-Glucosidase inhibition (%) (α-Glucosidase [1]; concentration 2000 µg/mL) | α-Glucosidase inhibition (%) (α-Glucosidase [1]; concentration 5000 µg/mL) | α-Glucosidase inhibition (%) (α-Glucosidase [2]; at 1000 µg/mL, ref Shalaby et al. [2014]) | α-glucosidase inhibitory activity (in words) (α-Glucosidase [2]) | α-amylase inhibition (α-amylase) [%] | α-glucosidase IC50 value (α-Glucosidase [2]; at 0.5 mg/mL, ref Ayyasamy & Rajamanickam 2015) [µg/mL] | times more effective than acarbose against α-glucosidase (α-Glucosidase [1]; ratio of IC50 values vs acarbose) [times] |
| --- | --- | --- | --- | --- | --- | --- | --- | --- |
| CC(C)=CCOc1c2occc2cc2ccc(=O)oc12 [Imperatorin, imperatorin] | 1230 (≈ 4.55 mM) | 63.07 ± 0.69 | 88.97 ± 0.88 | 69.66 ± 3.67 | too low to compare to that of acarbose | – | – | – |
| COc1c2occc2cc2ccc(=O)oc12 [Xanthotoxin, xanthotoxin] | 5380 (≈ 24.9 mM) | 37.95 ± 8.64 | 45.76 ± 4.82 | – | too low to compare to that of acarbose | – | – | – |
| COc1cc2oc(=O)ccc2cc1CC=C(C)C [Suberosin, suberosin] | 890 (≈ 3.64 mM) | 81.58 ± 1.15 | 87.95 ± 1.07 | – | – | – | – | – |
| C[C@H]1O[C@H](O[C@H]2[C@H](O)[C@@H](O)[C@@H](O[C@H]3[C@H](O)[C@@H](O)C(O)O[C@@H]3CO)O[C@@H]2CO)[C@H](O)[C@@H](O)[C@@H]1N[C@H]1C=C(CO)[C@@H](O)[C@H](O)[C@H]1O (some centres unmarked) [Acarbose, acarbose, reference compound] | – | 29.43 ± 1.71 | 50.81 ± 2.51 | – | – | 82.28 | – | – |
| O=c1ccc2ccc(O)cc2o1 [Umbelliferone, umbelliferone] | 9320 (≈ 57.5 mM) | 8.84 ± 0.02 | 10.27 ± 0.49 | – | – | – | 547 | – |
| COc1c2ccoc2cc2oc(=O)ccc12 [Bergapten, bergapten] | 6120 (≈ 28.3 mM) | 39.71 ± 2.44 | 42.26 ± 0.43 | – | too low to compare to that of acarbose | – | – | – |
| CC(C)(OC(=O)c1ccccc1)[C@@H]1Cc2cc3ccc(=O)oc3cc2O1 [Felamidin, felamidin] | 420 (≈ 1.2 mM) | 64.93 ± 2.06 | 94.57 ± 0.05 | – | – | – | – | 11 |
| COc1ccc2ccc(=O)oc2c1CC=C(C)C [Osthole, osthole] | 950 (≈ 3.89 mM) | 84.31 ± 1.72 | 93.31 ± 0.29 | – | – | – | – | – |
| CC(C)=CC(=O)OC(C)(C)C1Cc2cc3ccc(=O)oc3cc2O1 (centres unmarked) [Prantschimgin, prantschimgin] | 1860 (≈ 5.66 mM) | 51.95 ± 0.01 | 68.23 ± 0.39 | – | – | – | – | – |
| CC(C)=CC(=O)OC(Cc1cc2ccc(=O)oc2cc1O)C(C)(C)O (centres unmarked) [Grandivitinol, grandivitinol] | 20010 (≈ 57.8 mM) | 7.84 ± 0.71 | 12.30 ± 0.36 | – | – | – | – | – |
| CC(C)(O)C(Cc1cc2ccc(=O)oc2cc1O)OC(=O)c1ccccc1 (centres unmarked) [Peucedanol-2'-benzoate, peucedanol-2′-benzoate] | – | 66.86 ± 0.37 | 77.22 ± 0.44 | – | – | – | – | – |
